How the values were obtained:
male golden hamsters = test: Resident/intruder paradigm of offensive aggression; assay type: in vivo, Syrian golden hamsters (Mesocricetus auratus)
Experimental: Male Syrian golden hamsters (Mesocricetus auratus) (140-150 g) obtained from Harlan Sprague-Dawley Laboratories (Indianapolis, Ind.) were housed individually in Plexiglas cages (24 cm×24 cm×20 cm), maintained on a reverse light:dark cycle (14L:10D; lights on at 19:00 hr) and provided food and water ad libitum. Animals were acclimated to the reverse light:dark cycle for at least two weeks before testing. All behavioral tests were conducted during the dark phase of the circadian cycle. All animals were acquired and cared for in accordance with the guidelines published in the Guide for the Care and Use of Laboratory Animals (National Institutes of Health Publications No. 85-23, Revised 1985).
(§1) Agonistic behavior can be classified as either offensive or defensive aggression (Blanchard and Blanchard, 1977; Adams, […]; Albert and Walsh, 1984). Offensive aggression is characterized by the aggressor initiating an attack on an opponent, while defensive aggression lacks active approach. Both types of aggression have their own unique neurobehavioral systems. The stimuli that elicit offensive and defense attack are different, as are the sequences of behaviors that accompany each agonistic response. […] Offensive aggression is easily studied using male golden hamsters tested in a resident/intruder paradigm, an established model of offensive aggression (Ferris and Potegal 1988). Placing an unfamiliar male hamster into the home cage of another male hamster elicits a well-defined sequence of agonistic behaviors from the resident that includes offensive aggression.
(§2) Hamsters are nocturnal and as such all behavioral tests were performed during the first four hrs of the dark phase under dim red illumination. The resident was scored for offensive aggression, e.g., latency to bite the intruder, the total number of bites, total contact time with the intruder and flank marking over a 10 min test period (Ferris and Potegal, 1988). Flank marking is a form of olfactory communication in which a hamsters arches its back and rubs pheromone producing flank glands against objects in the environment (Johnson, 1986).
Parametric data, i.e., latencies and contact time, were analyzed with a one-way ANOVA followed by Newman-Keuls post hoc tests. Non parametric data, i.e., number of bites and flank marks, were analyzed with Kruskal-Wallis tests followed by Mann-Whitney U tests to determine differences between groups. Two sample comparisons were analyzed with paired and unpaired t-Tests for parametric data and Wilcoxon and Mann-Whitney Tests for paired and unpaired non-parametric data, respectively.
as §1, with “by an” for “by the”, “an opponent; while,” for “an opponent, while”, “Potegal 1988) in the context of defending the home burrow.” for “Potegal 1988).”
as §2, with “Flank marking is a form of olfactory communication in which a hamsters arches its back and rubs pheromone producing flank glands against objects in the environment (Johnson, 1986).” left out

rats = test: Motor activity in an open field (plus-maze animals); assay type: in vivo, rat
Experimental: However, this depression of motor activity disappears following repeated administration of CDP over several days. […] To control for any non-specific effects of Mox and CDP on motor activity following their direct injection into the brain, animals were tested in the open field 30 min prior to testing in the plus (FIG. 18).
Immediately after each of the plus-maze tests reported above in Section II, animals were tested for general motor activity in an “open field.” Animals were placed into a large clean Plexiglas cage (48×32×40 cm) devoid of bedding. This open field was delineated into equal quadrants by tape on the underside of the cage. Animals were scored for motor activity by counting the number of quadrants traversed in 1 min.

[1] = tested on: hamsters and other test species; test: Animal tests: effective dose for neuroactivity; assay type: in vivo; settings: for threshold effective dose (administered parenterally): parenteral
Experimental: Animal tests indicate a threshold effective dose of moxalactam (administered parenterally) to be about 50 μg/kg of body weight. Based on animal test data and on the known distribution of parenterally administered moxalactam between the brain and other body tissues, that the effective minimum neurogenic protease inhibiting, concentration of moxalactam in the brain is about 30 nM. […] For parenterally administered moxalactam the minimum effective dose in hamsters and other test species is about 50 micrograms per kg of body weight, more or less. The use of moxalactam in an oral dosage form, preferably modified or derivatized in the form of an active ester, is estimated to range from about 2.5 to about 50 mg per dose, much less than the dose of moxalactam necessary to provide therapeutically effective antibiotic concentration. The effective oral dose of clavulanate is expected to be about 0.1 to about 10 mgs per dose.

[2] = 50 μg/kg IP, 90 min, thirteen hamsters

CO[C@@]1(NC(=O)C(C(=O)O)c2ccc(O)cc2)C(=O)N2C(C(=O)O)=C(CSc3nnnn3C)CO[C@@H]21 (stereo partly drawn) [Mox, 7-β-[2-carboxy-2-(4-hydroxyphenyl)acetamido]-7α-methoxy-3-[[(1-methyl-1H-tetrazol-5-yl)thio]methyl]-1-oxa-1-dethia-3-cephem-4-carboxylic acid]
bite latency (male golden hamsters; [2]): significantly increased | contact time (male golden hamsters; [2]): no significant change | flank marking (male golden hamsters; [2]): no significant change | number of bites (male golden hamsters; [2]): reduced | contact time (male golden hamsters; 50 mg/kg IP, 90 min): significantly reduced | flank marking (male golden hamsters; 50 mg/kg IP, 90 min): did not reach significance | number of bites (male golden hamsters; 50 mg/kg IP, 90 min, 10 min observation): significantly reduced | mean latency to bite (male golden hamsters; 50 mg/kg IP, 90 min after treatment, 10 min observation, vs saline): over six | animals that never bite in the 10 min observation period (male golden hamsters; dose response, 50 μg): three of six | number of bites (male golden hamsters; dose response, 50 μg): significant reduction | delay of bite latency vs vehicle (male golden hamsters; dose response, 50 μg/kg): over seven | contact time (male golden hamsters; dose response, 500 μg and 5 mg): significantly reduced | bite latency (male golden hamsters; dose response, 500 μg and 5.0 mg): significantly increased | flank marking (male golden hamsters; dose response, 0.5-5000 μg/kg, between groups): not significantly different | behavioral measures of offensive aggression (male golden hamsters; dose response, doses of 5.0 μg and less): no effect | contact time (male golden hamsters; equimolar (90 μM) IP, 90 min): no significant treatment effect | flank marking (male golden hamsters; equimolar (90 μM) IP, 90 min): no significant treatment effect | number of bites (male golden hamsters; equimolar (90 μM) IP, 90 min): significantly reduced | latency to bite (male golden hamsters; equimolar (90 μM, equal to 50 μg/kg Mox) IP, 90 min): significantly delayed | general motor activity in the open field (rats; 1 mM direct injection into the brain, 30 min prior to plus-maze): no significant effect | threshold effective dose (administered parenterally) ([1]; listed as Moxalactam): ≥ 50 μg/kg of body weight | threshold effective dose (administered parenterally) ([1]; listed as moxalactam): about 50 μg/kg of body weight

O=C(O)[C@H]1/C(=C/CO)O[C@@H]2CC(=O)N21 [CLAV, Clavulanic acid]
contact time with the intruder (male golden hamsters; CLAV 200 μg/kg IP, 90 min): no significant main effect | flank marking (male golden hamsters; CLAV 200 μg/kg IP, 90 min): no significant effect | latency to bite the intruder (male golden hamsters; CLAV 200 μg/kg IP, 90 min, trend toward significance): no significant main effect | median number of bites (male golden hamsters; CLAV 200 μg/kg IP, 90 min, thirteen for vehicle): six | aggressive behavior (male golden hamsters; pilot studies, 1.0 μg/kg IP): no effect | open field activity (quadrants traversed in 1 min) (rats; CLAV 1.0 μg/kg IP, immediately after plus-maze): no significant differences | effective i.p. dose ([1]; i.p.): less than 1 microgram/kg | i.p. doses with psychotropic effects (antianxiety, antiaggression, cognition enhancement) ([1]; i.p.): less than 1 μg/kg

— patent publication US7842683B2, “Neurotherapeutic compositions and method” (Revaax Pharmaceuticals, LLC, priority 1999, dated 2010)
